Experimental data published in US20070281992A1, “COMBINATION OF GYRASE B INHIBITORS AND PROTEIN SYNTHESIS INHIBITORS AND USES THEREOF” (priority 2006, published 2007).
Read-outs that look alike come from different tables or passages of the source.

How the values were obtained:
Assay type in all cases: cell-based
[1] = tested on: Unconfirmed Vancomycin-intermediate Staphylococcus epidermidis Isolates; assay: MIC assay (NCCLS broth dilution), unconfirmed VISE isolates; conditions: for MIC: read-out: Minimal Inhibitory Concentration
Protocol: (§1) Antibiotics: novobiocin, tetracycline, minocycline, oxacillin, and vancomycin were all purchased from Sigma-Aldrich. Linezolid was obtained from Pfizer, Inc. Novobiocin/tetracycline and novobiocin/minocycline were tested in a 2.5:1 ratio to mimic the serum levels. (Vavra, J. J., 1967, Development of resistance to novobiocin, tetracycline, and novobiocin-tetracycline combinations in Staphylococcus aureus populations, J. Bacteriol 93(3):801). Compounds were tested across a concentration range consisting of 11 two-fold serial dilutions of test agent.
(§2) Stock solutions were prepared in sterile deionized water; novobiocin stock concentration was 1600 μg/mL and all other drugs stock solutions were prepared at 640 μg/mL. The stock solutions were allowed to sit at room temperature for one hour to auto-sterilize prior to use in the test. All compounds were in solution in water. The control agent was vancomycin hydrochloride, Sigma Chemical Lot # 015K0825.
(§3) The test organisms for the assay were 52 MSSA, 52 MRSA, 8 VISA, 7 VISE, and 3 LRSA isolates. Quality control strains included Staphylococcus aureus 0100 (ATCC 29213) and Enterococcus faecalis (ATCC 29212).
(§4) The MIC assay was performed according to published NCCLS guidelines. (National Committee for Clinical Laboratory Standards, Methods for Dilution Antimicrobial Susceptibility Tests for Bacteria that Grow Aerobically; Approved Standard-Sixth Edition, NCCLS Document M7-A6 [ISBN 1-56238-486-4], NCCLS, 940 West Valley Road, Suite 1400, Wayne, Pa. 19087-1898 USA, 2003). The test medium was Mueller Hinton II Broth for all organisms.

[2] = tested on: Unconfirmed Vancomycin-intermediate Staphylococcus aureus Isolates; assay: MIC assay (NCCLS broth dilution), unconfirmed VISA isolates; conditions: for MIC: read-out: Minimal Inhibitory Concentration
Protocol: as §1, §2, §3, §4

[3] = tested on: Vancomycin-intermediate Staphylococcus aureus Isolates; assay: MIC assay (NCCLS broth dilution), VISA isolates; conditions: for MIC: read-out: Minimal Inhibitory Concentration
Protocol: as §1, §2, §3, §4

[4] = tested on: Enterococcus faecalis (ATCC 29212); assay: MIC assay, quality control strain E. faecalis ATCC 29212; conditions: ATCC29212, E. faecalis ATCC 29212, repeat runs 22FEB06-09MAR06, combinations at 2.5:1, read-out: Minimal Inhibitory Concentration, quality control
Protocol: as §1, §2, §3, §4

[5] = tested on: Methicillin-Susceptible Staphylococcus aureus Isolates; assay: MIC assay (NCCLS broth dilution), MSSA clinical isolates
Protocol: as §1, §2, §3, §4

[6] = tested on: Linezolid-Resistant Staphylococcus aureus Isolates; assay: MIC assay (NCCLS broth dilution), LRSA isolates; conditions: for MIC: read-out: Minimal Inhibitory Concentration
Protocol: as §1, §2, §3, §4

[7] = Staphylococcus aureus, 52 MSSA isolates, combinations at 2.5:1, given as NB/partner

CO[C@@H]1[C@@H](OC(N)=O)[C@@H](O)[C@H](Oc2ccc3c(O)c(NC(=O)c4ccc(O)c(CC=C(C)C)c4)c(=O)oc3c2C)OC1(C)C [NB, novobiocin]
≦.04-.15 μg/ml: MIC Range ([2]; 6 unconfirmed VISA isolates (vancomycin MIC 4 ug/ml), combinations at 2.5:1)
10 µg/mL: MIC ([5]; Staphylococcus aureus, MSSA isolate 1728, 03MAR06, read-out: Minimal Inhibitory Concentration) | MIC ([5]; Staphylococcus aureus, MSSA isolate 1728, retest 09MAR06, read-out: Minimal Inhibitory Concentration) | MIC ([5]; Staphylococcus aureus, MSSA isolate #1728 (novobiocin-resistant), read-out: MIC)
5 µg/mL: MIC ([1]; Staphylococcus epidermidis, Unconfirmed VISE isolate 2024, 09MAR06) | MIC [4]
≦.04-.08 μg/ml: MIC Range ([3]; 2 VISA isolates, combinations at 2.5:1, given as NB/partner)
.08 to 10 µg/mL: MIC Range ([5]; 52 MSSA isolates, Mueller Hinton II Broth, combinations at 2.5:1, given as NB/partner)
0.15 µg/mL: MIC ([2]; Staphylococcus aureus, Unconfirmed VISA isolate 2014, 03MAR06) | MIC ([2]; Staphylococcus aureus, Unconfirmed VISA isolate 2017, 03MAR06) | MIC ([5]; Staphylococcus aureus, MSSA isolate 133, 03MAR06, read-out: Minimal Inhibitory Concentration) | MIC ([5]; Staphylococcus aureus, MSSA isolate 756, 03MAR06, read-out: Minimal Inhibitory Concentration) | MIC ([5]; Staphylococcus aureus, MSSA isolate 781, 03MAR06, read-out: Minimal Inhibitory Concentration) | MIC ([5]; Staphylococcus aureus, MSSA isolate 782, 22FEB06, read-out: Minimal Inhibitory Concentration) | MIC ([5]; Staphylococcus aureus, MSSA isolate 785, 22FEB06, read-out: Minimal Inhibitory Concentration) | MIC ([5]; Staphylococcus aureus, MSSA isolate 786, 22FEB06, read-out: Minimal Inhibitory Concentration) | MIC ([5]; Staphylococcus aureus, MSSA isolate 787, 22FEB06, read-out: Minimal Inhibitory Concentration) | MIC ([5]; Staphylococcus aureus, MSSA isolate 788, 22FEB06, read-out: Minimal Inhibitory Concentration) | MIC ([5]; Staphylococcus aureus, MSSA isolate 791, 24FEB06, read-out: Minimal Inhibitory Concentration) | MIC ([5]; Staphylococcus aureus, MSSA isolate 792, 03MAR06, read-out: Minimal Inhibitory Concentration) | MIC ([5]; Staphylococcus aureus, MSSA isolate 994, 22FEB06, read-out: Minimal Inhibitory Concentration) | MIC ([5]; Staphylococcus aureus, MSSA isolate 999, 22FEB06, read-out: Minimal Inhibitory Concentration) | MIC ([5]; Staphylococcus aureus, MSSA isolate 1000, 24FEB06, read-out: Minimal Inhibitory Concentration) | MIC ([5]; Staphylococcus aureus, MSSA isolate 1002, 24FEB06, read-out: Minimal Inhibitory Concentration) | MIC ([5]; Staphylococcus aureus, MSSA isolate 1009, 24FEB06, read-out: Minimal Inhibitory Concentration) | MIC ([5]; Staphylococcus aureus, MSSA isolate 1131, 24FEB06, read-out: Minimal Inhibitory Concentration) | MIC ([5]; Staphylococcus aureus, MSSA isolate 1132, 03MAR06, read-out: Minimal Inhibitory Concentration) | MIC ([5]; Staphylococcus aureus, MSSA isolate 1133, 24FEB06, read-out: Minimal Inhibitory Concentration) | MIC ([5]; Staphylococcus aureus, MSSA isolate 1656, 03MAR06, read-out: Minimal Inhibitory Concentration) | MIC ([5]; Staphylococcus aureus, MSSA isolate 1662, 03MAR06, read-out: Minimal Inhibitory Concentration) | MIC ([5]; Staphylococcus aureus, MSSA isolate 1663, 03MAR06, read-out: Minimal Inhibitory Concentration) | MIC ([5]; Staphylococcus aureus, MSSA isolate 1667, 03MAR06, read-out: Minimal Inhibitory Concentration) | MIC ([5]; Staphylococcus aureus, MSSA isolate 1668, 03MAR06, read-out: Minimal Inhibitory Concentration) | MIC ([5]; Staphylococcus aureus, MSSA isolate 1671, 03MAR06, read-out: Minimal Inhibitory Concentration) | MIC50 [5, 7] | MIC Range ([6]; 3 LRSA isolates, combinations at 2.5:1) | MIC ([6]; Staphylococcus aureus, LRSA isolate 1651, 24FEB06) | MIC ([6]; Staphylococcus aureus, LRSA isolate 1652, 24FEB06) | MIC ([6]; Staphylococcus aureus, LRSA isolate 1725, 24FEB06) | MIC50 ([6]; Staphylococcus aureus, 3 LRSA isolates, combinations at 2.5:1)
0.625 µg/mL: MIC ([5]; Staphylococcus aureus, MSSA isolate 1008, 24FEB06, read-out: Minimal Inhibitory Concentration)
0.31 µg/mL: MIC ([5]; Staphylococcus aureus, MSSA isolate 135, 03MAR06, read-out: Minimal Inhibitory Concentration) | MIC ([5]; Staphylococcus aureus, MSSA isolate 753, 22FEB06, read-out: Minimal Inhibitory Concentration) | MIC ([5]; Staphylococcus aureus, MSSA isolate 754, 22FEB06, read-out: Minimal Inhibitory Concentration) | MIC ([5]; Staphylococcus aureus, MSSA isolate 754, 24FEB06, read-out: Minimal Inhibitory Concentration) | MIC ([5]; Staphylococcus aureus, MSSA isolate 755, 22FEB06, read-out: Minimal Inhibitory Concentration) | MIC ([5]; Staphylococcus aureus, MSSA isolate 779, 22FEB06, read-out: Minimal Inhibitory Concentration) | MIC ([5]; Staphylococcus aureus, MSSA isolate 780, 03MAR06, read-out: Minimal Inhibitory Concentration) | MIC ([5]; Staphylococcus aureus, MSSA isolate 783, 22FEB06, read-out: Minimal Inhibitory Concentration) | MIC ([5]; Staphylococcus aureus, MSSA isolate 784, 22FEB06, read-out: Minimal Inhibitory Concentration) | MIC ([5]; Staphylococcus aureus, MSSA isolate 789, 24FEB06, read-out: Minimal Inhibitory Concentration) | MIC ([5]; Staphylococcus aureus, MSSA isolate 790, 24FEB06, read-out: Minimal Inhibitory Concentration) | MIC ([5]; Staphylococcus aureus, MSSA isolate 793, 24FEB06, read-out: Minimal Inhibitory Concentration) | MIC ([5]; Staphylococcus aureus, MSSA isolate 794, 24FEB06, read-out: Minimal Inhibitory Concentration) | MIC ([5]; Staphylococcus aureus, MSSA isolate 995, 03MAR06, read-out: Minimal Inhibitory Concentration) | MIC ([5]; Staphylococcus aureus, MSSA isolate 996, 22FEB06, read-out: Minimal Inhibitory Concentration) | MIC ([5]; Staphylococcus aureus, MSSA isolate 997, 22FEB06, read-out: Minimal Inhibitory Concentration) | MIC ([5]; Staphylococcus aureus, MSSA isolate 998, 03MAR06, read-out: Minimal Inhibitory Concentration) | MIC ([5]; Staphylococcus aureus, MSSA isolate 1001, 24FEB06, read-out: Minimal Inhibitory Concentration) | MIC ([5]; Staphylococcus aureus, MSSA isolate 1006, 24FEB06, read-out: Minimal Inhibitory Concentration) | MIC ([5]; Staphylococcus aureus, MSSA isolate 1007, 24FEB06, read-out: Minimal Inhibitory Concentration) | MIC ([5]; Staphylococcus aureus, MSSA isolate 1134, 24FEB06, read-out: Minimal Inhibitory Concentration) | MIC ([5]; Staphylococcus aureus, MSSA isolate 1654, 03MAR06, read-out: Minimal Inhibitory Concentration) | MIC ([5]; Staphylococcus aureus, MSSA isolate 1666, 03MAR06, read-out: Minimal Inhibitory Concentration)
0.08 µg/mL: MIC ([2]; Staphylococcus aureus, Unconfirmed VISA isolate 2013, 03MAR06) | MIC ([3]; Staphylococcus aureus, VISA isolate 2012, 03MAR06) | MIC ([5]; Staphylococcus aureus, MSSA isolate 134, 03MAR06, read-out: Minimal Inhibitory Concentration) | MIC ([5]; Staphylococcus aureus, MSSA isolate 1003, 03MAR06, read-out: Minimal Inhibitory Concentration) | MIC ([5]; Staphylococcus aureus, MSSA isolate 1005, 24FEB06, read-out: Minimal Inhibitory Concentration)
0.312 µg/mL: MIC ([1]; Staphylococcus epidermidis, Unconfirmed VISE isolate 2025, 09MAR06) | MIC50 ([1]; Staphylococcus epidermidis, 3 unconfirmed VISE isolates, combinations at 2.5:1) | MIC90 [5, 7]
0.08 to 0.62 µg/mL: MIC Range ([5]; the other 51 MSSA isolates (without #1728))
≦.04-5 μg/ml: MIC Range ([1]; 3 unconfirmed VISE isolates, combinations at 2.5:1)
≤ 0.04 µg/mL: MIC ([1]; Staphylococcus epidermidis, Unconfirmed VISE isolate 2026, 03MAR06) | MIC ([2]; Staphylococcus aureus, Unconfirmed VISA isolate 2015, 03MAR06) | MIC ([2]; Staphylococcus aureus, Unconfirmed VISA isolate 2016, 03MAR06) | MIC ([2]; Staphylococcus aureus, Unconfirmed VISA isolate 2019, 03MAR06) | MIC50 ([2]; Staphylococcus aureus, 6 unconfirmed VISA isolates (vancomycin MIC 4 ug/ml), combinations at 2.5:1) | MIC ([3]; Staphylococcus aureus, VISA isolate 2018, 03MAR06) | MIC50 ([3]; Staphylococcus aureus, 2 VISA isolates, combinations at 2.5:1, given as NB/partner)
